Assay results taken from paper PMC6591177, “Small Molecule IL-36γ Antagonist as a Novel Therapeutic Approach for Plaque Psoriasis” (Scientific Reports, 2019).

Assays:
Assay type in all cases: binding
[1] = biological target: T1, human IL-36γ (Homo sapiens, UniProt Q9NZH8); assay: Isothermal titration calorimetry; conditions: 25 °C, pH 7.5; read-out: KD (ITC)
T1 construct: His6-SUMO-human IL-36γ (18–169); His6-SUMO (N, cleaved yes); made in house; host or cells: E. coli BL21 (DE3)
T1 sequence (Q9NZH8 18-169): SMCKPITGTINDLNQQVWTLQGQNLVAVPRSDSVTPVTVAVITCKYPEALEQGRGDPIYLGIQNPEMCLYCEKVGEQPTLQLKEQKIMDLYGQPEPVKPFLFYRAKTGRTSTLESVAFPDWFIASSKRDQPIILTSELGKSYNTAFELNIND
Experimental: All experiments were carried out on a MicroCal^TM Auto-ITC200 at 25 °C in 50 mM HEPES (pH = 7.5), 150 mM NaCl, 0.5 mM TCEP, 2% DMSO. IL-36γ protein solution was buffer exchanged by gel filtration into the isothermal titration calorimetry (ITC) buffer and diluted to 40 µM. The titrations were conducted using an initial injection of 0.2 µL followed by 19 identical injections of 2 µL of 400 µM compound solution. Thermodynamic parameters were calculated using ∆G = ∆H − T∆S = −RTlnKB, where ∆G, ∆H and ∆S are the changes in free energy, enthalpy and entropy of binding respectively. A single binding site model was employed.

[2] = biological target: T2, mouse IL-36γ (Mus musculus, UniProt Q8R460); assay: Affinity for mouse IL-36γ
T2 sequence (Q8R460 13-164): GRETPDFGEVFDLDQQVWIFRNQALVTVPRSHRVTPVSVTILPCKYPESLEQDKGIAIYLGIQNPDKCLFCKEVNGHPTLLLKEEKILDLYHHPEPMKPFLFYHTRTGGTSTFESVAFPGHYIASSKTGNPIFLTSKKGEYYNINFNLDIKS

[3] = biological target: T3, human IL-36β (Homo sapiens, UniProt Q9NZH7); assay: Affinity for human IL-36β
T3 sequence (Q9NZH7 5-164): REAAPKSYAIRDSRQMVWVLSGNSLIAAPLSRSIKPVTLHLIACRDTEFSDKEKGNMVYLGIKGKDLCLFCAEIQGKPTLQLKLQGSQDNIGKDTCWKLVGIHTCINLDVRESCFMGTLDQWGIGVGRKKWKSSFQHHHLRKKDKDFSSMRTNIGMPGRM

[4] = biological target: T4, mouse IL-36α (Mus musculus, UniProt Q9JLA2); assay: Cross-reactivity to mouse IL-36α
T4 sequence (Q9JLA2 8-160): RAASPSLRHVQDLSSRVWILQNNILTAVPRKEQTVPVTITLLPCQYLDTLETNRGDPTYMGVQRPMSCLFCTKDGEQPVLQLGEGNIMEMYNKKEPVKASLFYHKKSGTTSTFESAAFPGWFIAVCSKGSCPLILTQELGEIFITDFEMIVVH

COC(c1ccccc1)(c1ccccc1)[C@H](Oc1nc(C)cc(-c2ccc(C)c(N)c2)n1)C(=O)O [Compound A-552]
Kd [1]: 67.6 ± 6 nM
affinity for mouse IL-36γ [2]: does not show affinity
affinity for human IL-36β [3]: does not show affinity
cross-reactivity to mouse IL-36α [4]: lack of species cross-reactivity
